Test results as given in ChEMBL document CHEMBL4616693, “Identification of Inhibitors of Thrombospondin 1 Activation of TGF-β” (ACS Med Chem Lett, 2020).
Peptide text beside a SMILES is read from it.

Key:
Thrombospondin-1 [1] = molecular target: T1, Thrombospondin-1 (Homo sapiens, UniProt P07996); test: Inhibition of TSP1 in human myeloma cells assessed reduction in TGFbeta activity incubated for 1 hr by ELISA; assay type: cell-based
Target sequence in this assay (P07996 whole entry): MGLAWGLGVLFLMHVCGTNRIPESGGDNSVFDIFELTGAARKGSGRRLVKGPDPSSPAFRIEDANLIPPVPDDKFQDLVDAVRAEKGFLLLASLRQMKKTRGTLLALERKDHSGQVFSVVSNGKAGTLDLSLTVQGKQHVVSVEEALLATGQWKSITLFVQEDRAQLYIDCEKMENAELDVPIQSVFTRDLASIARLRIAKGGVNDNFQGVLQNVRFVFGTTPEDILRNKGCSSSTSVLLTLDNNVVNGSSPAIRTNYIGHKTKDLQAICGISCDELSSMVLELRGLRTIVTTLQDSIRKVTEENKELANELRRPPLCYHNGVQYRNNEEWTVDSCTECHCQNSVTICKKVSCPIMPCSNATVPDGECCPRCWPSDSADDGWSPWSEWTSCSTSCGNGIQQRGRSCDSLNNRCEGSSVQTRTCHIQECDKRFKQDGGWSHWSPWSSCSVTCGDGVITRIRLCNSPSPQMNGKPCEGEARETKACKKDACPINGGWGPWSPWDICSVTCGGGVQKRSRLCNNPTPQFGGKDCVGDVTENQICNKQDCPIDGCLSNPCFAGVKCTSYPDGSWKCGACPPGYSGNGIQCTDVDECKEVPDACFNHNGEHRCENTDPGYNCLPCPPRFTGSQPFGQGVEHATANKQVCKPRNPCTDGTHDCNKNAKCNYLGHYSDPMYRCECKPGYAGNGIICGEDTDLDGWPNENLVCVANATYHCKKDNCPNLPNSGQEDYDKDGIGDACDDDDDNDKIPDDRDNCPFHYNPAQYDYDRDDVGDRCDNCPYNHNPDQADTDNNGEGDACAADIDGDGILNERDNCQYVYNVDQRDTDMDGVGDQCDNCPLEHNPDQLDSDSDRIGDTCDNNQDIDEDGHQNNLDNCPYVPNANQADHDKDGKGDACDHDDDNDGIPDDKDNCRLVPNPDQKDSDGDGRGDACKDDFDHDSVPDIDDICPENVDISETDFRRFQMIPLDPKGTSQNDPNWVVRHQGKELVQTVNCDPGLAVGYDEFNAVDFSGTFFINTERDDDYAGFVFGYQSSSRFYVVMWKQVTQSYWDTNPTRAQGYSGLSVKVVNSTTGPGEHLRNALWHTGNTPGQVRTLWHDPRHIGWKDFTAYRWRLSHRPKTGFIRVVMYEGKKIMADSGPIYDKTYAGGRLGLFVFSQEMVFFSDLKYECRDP

[2] = Microsomal stability in rat liver microsomes assessed as half life measured after 45 mins in presence of NADPH by LC-MS/MS analysis; assay type: ADME, Microsome
[3] = Cmax in ip dosed CD1 mouse measured after 0.25 hrs by LC-MS/MS analysis; assay type: ADME, organism-based; design: route intraperitoneal; conditions: in vivo
Thrombospondin-1 [4] = molecular target: T1, Thrombospondin-1; test: Inhibition of recombinant human TSP1 P123 expressed in baculovirus system binding to recombinant human LAP at 10 nM preincubated for 10 mins followed by recombinant human LAP addition and measured after 2 hrs by ELISA relative to control
Target sequence in this assay (P07996 19-1170 limits assumed): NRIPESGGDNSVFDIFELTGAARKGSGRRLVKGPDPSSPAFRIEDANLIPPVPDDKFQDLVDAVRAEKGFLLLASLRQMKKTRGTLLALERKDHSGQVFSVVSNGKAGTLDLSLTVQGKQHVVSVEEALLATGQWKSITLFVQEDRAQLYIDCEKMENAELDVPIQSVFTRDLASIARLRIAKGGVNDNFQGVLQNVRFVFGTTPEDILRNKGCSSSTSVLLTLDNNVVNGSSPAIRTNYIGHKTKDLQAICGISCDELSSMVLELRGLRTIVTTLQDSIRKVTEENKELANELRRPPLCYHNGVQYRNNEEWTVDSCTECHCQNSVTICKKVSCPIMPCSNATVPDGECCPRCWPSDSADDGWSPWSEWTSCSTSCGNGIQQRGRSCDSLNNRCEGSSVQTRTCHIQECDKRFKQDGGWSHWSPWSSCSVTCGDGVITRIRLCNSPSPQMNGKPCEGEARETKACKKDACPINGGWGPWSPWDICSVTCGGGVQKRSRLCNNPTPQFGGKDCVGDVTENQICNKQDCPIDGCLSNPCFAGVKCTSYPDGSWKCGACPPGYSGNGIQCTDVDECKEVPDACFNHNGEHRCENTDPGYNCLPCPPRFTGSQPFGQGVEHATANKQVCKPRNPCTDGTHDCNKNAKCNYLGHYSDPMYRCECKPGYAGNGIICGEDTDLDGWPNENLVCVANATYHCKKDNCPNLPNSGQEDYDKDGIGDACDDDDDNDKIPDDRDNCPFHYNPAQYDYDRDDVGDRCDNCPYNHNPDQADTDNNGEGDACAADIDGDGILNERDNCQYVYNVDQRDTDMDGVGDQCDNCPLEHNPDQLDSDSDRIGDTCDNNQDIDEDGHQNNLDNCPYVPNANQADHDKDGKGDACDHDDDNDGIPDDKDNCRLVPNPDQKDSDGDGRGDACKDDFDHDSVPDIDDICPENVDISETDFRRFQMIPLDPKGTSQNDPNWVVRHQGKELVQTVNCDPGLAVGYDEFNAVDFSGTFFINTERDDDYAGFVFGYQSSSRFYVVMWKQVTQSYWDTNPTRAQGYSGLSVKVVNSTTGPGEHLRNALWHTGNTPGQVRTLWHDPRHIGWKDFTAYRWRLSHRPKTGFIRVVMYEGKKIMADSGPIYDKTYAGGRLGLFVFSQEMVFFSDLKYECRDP

[5] = Half life in CD1 mouse at 1 mg/kg, iv by LC-MS/MS analysis; assay type: ADME, organism-based; conditions: in vivo
[6] = Microsomal stability in human liver microsomes assessed as half life measured after 45 mins in presence of NADPH by LC-MS/MS analysis; assay type: ADME, Microsome
[7] = Half life in ip dosed CD1 mouse by LC-MS/MS analysis; assay type: ADME, organism-based; conditions: in vivo
[8] = Plasma concentration in CD1 mouse at 1 mg/kg, iv or 5 mg/kg, po measured after 1 hr by LC-MS/MS analysis; assay type: ADME, organism-based
[9] = Oral bioavailability in CD1 mouse at 5 mg/kg by LC-MS/MS analysis; assay type: ADME, organism-based; conditions: in vivo
[10] = Plasma concentration in CD1 mouse at 1 mg/kg, iv or 5 mg/kg, po measured after 2 hrs by LC-MS/MS analysis; assay type: ADME, organism-based

Work on `CNC(=O)[C@H](CC(C)C)NC(=O)[C@@H](CCCCN)NC(=O)[C@@H](NC(C)=O)[C@@H](C)O` yielded an IC50 (Thrombospondin-1 [1]) of 2.88 nM.

For `CC(=O)N[C@@H](CCCN)C(=O)NC(C)(C)C(N)=O`, the IC50 (Thrombospondin-1 [1]) was 7.59 nM, the half-life [2] was 2.83 h and the Cmax [3] was 19400 ng/mL. The inhibition (Thrombospondin-1 [4]) was 85%, the half-life [5] was 0.2 h and the half-life [6] was > 5 h. For the same molecule, the half-life [7] was 7 h, the concentration at 1 h [8] was 11.6 µM and the bioavailability [9] was 9%. It also gave a concentration at 2 h [10] of 2.1 µM.

In the case of `CC(=O)N[C@@H](CC(N)=O)C(=O)N[C@@H](CCCCN)C(=O)N[C@@H](CC(C)C)C(N)=O` (Ac-Asn-Lys-Leu-NH2), the IC50 (Thrombospondin-1 [1]) is reported as 9.55 nM.

`CC(=O)NCC(=O)N[C@@H](CCCCN)C(=O)N[C@@H](CC(C)C)C(N)=O` (Ac-Gly-Lys-Leu-NH2) showed an IC50 (Thrombospondin-1 [1]) of 14.1 nM.

For `CC(=O)NCCCC[C@H](NC(=O)[C@H](CO)NC(C)=O)C(=O)N[C@@H](CC(C)C)C(N)=O` (Ac-Ser-Lys(Ac)-Leu-NH2), the IC50 (Thrombospondin-1 [1]) was 15.1 nM.

For `CC(=O)N[C@@H](CO)C(=O)N[C@@H](CCCCN)C(=O)N[C@@H](CC(C)C)C(N)=O` (Ac-Ser-Lys-Leu-NH2), the IC50 (Thrombospondin-1 [1]) was 5.25 nM, the inhibition (Thrombospondin-1 [4]) was 85% and the half-life [5] was 1.9 h.

`CCC(=O)N[C@@H](CO)C(=O)N[C@@H](CCCCN)C(=O)N[C@@H](CC(C)C)C(N)=O` (HELM PEPTIDE1{[CCC(=O)[*:2]].S.K.L.[am]}$$$$V2.0) gave an IC50 (Thrombospondin-1 [1]) of 13.5 nM.

In the case of `CC(=O)N[C@@H](CO)C(=O)N[C@@H](CCCCN)C(=O)N[C@@H](CC(C)C)C(=O)N(C)C` (HELM PEPTIDE1{[ac].S.K.L.[CN(C)[*:1]]}$$$$V2.0), the IC50 (Thrombospondin-1 [1]) is reported as 3.31 nM.

`CC(=O)N[C@@H](CO)C(=O)N[C@@H](CCCCN)C(=O)N[C@H](CC(C)C)C(N)=O` (HELM PEPTIDE1{[ac].S.K.[dL].[am]}$$$$V2.0) showed an IC50 (Thrombospondin-1 [1]) of 2 nM.

Molecule `CC(=O)N[C@@H](CO)C(=O)N[C@@H](CCCCN)C(=O)N(C)[C@@H](CC(C)C)C(N)=O` (HELM PEPTIDE1{[ac].S.K.[meL].[am]}$$$$V2.0) has an IC50 (Thrombospondin-1 [1]) of 2.24 nM.

Work on `CC(=O)N[C@@H](CO)C(=O)N[C@@H](CCCCN(C)C)C(=O)N[C@@H](CC(C)C)C(N)=O` (HELM PEPTIDE1{[ac].S.[CN(C)CCCC[C@H](N[*:1])C(=O)[*:2]].L.[am]}$$$$V2.0) yielded an IC50 (Thrombospondin-1 [1]) of 1.51 nM.

Molecule `CNCCCC[C@H](NC(=O)[C@H](CO)NC(C)=O)C(=O)N[C@@H](CC(C)C)C(N)=O` (HELM PEPTIDE1{[ac].S.[CNCCCC[C@H](N[*:1])C(=O)[*:2]].L.[am]}$$$$V2.0) has an IC50 (Thrombospondin-1 [1]) of 4.37 nM.

With `CC(=O)N[C@@H](CO)C(=O)N[C@@H](CCCN)C(=O)NC(C)(C)C(N)=O` (HELM PEPTIDE1{[ac].S.[Orn].[Aib].[am]}$$$$V2.0) the inhibition (Thrombospondin-1 [4]) was 34%.

In the case of `CC(=O)N[C@@H](CO)C(=O)N[C@H](CCCCN)C(=O)N[C@@H](CC(C)C)C(N)=O` (HELM PEPTIDE1{[ac].S.[dK].L.[am]}$$$$V2.0), the IC50 (Thrombospondin-1 [1]) is reported as 1.7 nM.

`CC(=O)N[C@H](CO)C(=O)N[C@@H](CCCCN)C(=O)N[C@@H](CC(C)C)C(N)=O` (HELM PEPTIDE1{[ac].[dS].K.L.[am]}$$$$V2.0) showed an IC50 (Thrombospondin-1 [1]) of 0.38 nM.
